# Laboratory results: ChEMBL document CHEMBL1201862, “PubChem BioAssay data set” (2004)
# The source made the active and inactive calls.
# How the values were obtained:
# [1] = target: T1, Beta-2 adrenergic receptor (Homo sapiens, UniProt P07550); assay: Dose response for HTS for Beta-2AR agonists via FAP method from Powderset3.; format: functional
# [2] = target: T1, Beta-2 adrenergic receptor; assay: ADRB2 activation measured by internalization – cell-based, FAP fluorogen, flow cytometry, cherry pick 1, dose response (AID 588763); format: functional
# [3] = target: T2, Type-1 angiotensin II receptor (Homo sapiens, UniProt P30556); assay: antagonism of angiotensin II type 1 receptor – cell-based, uHTS hits, selectivity assay for APJ receptor antagonist project, dose response (AID 463214); format: functional;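 further: antagonist potency against angiotensin II stimulated AT1 response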
# T2 sequence (P30556 whole entry): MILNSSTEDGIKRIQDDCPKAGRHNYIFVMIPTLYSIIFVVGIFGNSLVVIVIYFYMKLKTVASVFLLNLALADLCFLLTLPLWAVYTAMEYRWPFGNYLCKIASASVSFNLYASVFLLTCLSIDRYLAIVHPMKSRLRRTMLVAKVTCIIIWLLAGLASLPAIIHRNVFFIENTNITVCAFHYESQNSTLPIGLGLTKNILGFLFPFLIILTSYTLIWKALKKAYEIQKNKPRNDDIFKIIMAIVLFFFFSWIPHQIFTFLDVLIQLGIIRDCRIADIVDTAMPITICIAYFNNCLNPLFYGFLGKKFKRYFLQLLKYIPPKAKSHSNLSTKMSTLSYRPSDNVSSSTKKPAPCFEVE
# [4] = loss of viability in HepG2 cells – cell-based, CellTiter-Glo, cherry-picked, cytotoxicity control for Shn3 inhibitor project, dose response (AID 624134); format: functional
# [5] = reduction of Shn3 3'UTR-driven luciferase in osteoblasts – cell-based, Clone20 osteoblasts, firefly luciferase, cherry-picked, dose response (AID 624132); format: functional;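 further: firefly luciferase luminescence from reporter carrying the Shn3 3'UTR in osteoblasts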
# [6] = tested on: Jurkat; assay: blockers of NF-kB activation in T cells – Jurkat, luciferase reporter, luminescence, B- and T-cell, dose response (AID 489004); format: functional, cell-based; details: Homo sapiens;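 further: NF-kB luciferase reporter Jurkat cells stimulated with PMA plus ionomycin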
# [7] = target: Beta-galactosidase (Escherichia coli, UniProt Q8VNN2); assay: PubChem AID 485352; format: functional
# [8] = non-specific 3'UTR reporter inhibition in Clone20-Shn3RL – cell-based, Renilla luciferase, cherry-picked, counter-screen for Shn3 inhibitor project, dose response (AID 624133); format: functional
# [9] = HEK-293T viability loss, compound-treated – cell-based, uHTS hits, cytotoxicity control for B/T-cell NF-kB inhibitor project, dose response (AID 489019); format: functional;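 further: IC50 reflects cytotoxicity as loss of cell viability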
# [10] = viability loss of HMLE_sh_eGFP cells – cell-based, luminescence, counter-screen for HMLE_sh_ECad selective toxicity project, dose response (AID 463074); format: functional, Homo sapiens;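 further: HMLE human mammary epithelial cells expressing control shRNA against eGFP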
# [11] = Luminescence Cell-Based Dose Retest to Confirm Inhibitors of Cancer Stem Cells. [Related pubchem assays (depositor defined):AID2717, AID2721]; format: functional; details: Homo sapiens
# [12] = target: DNA dC->dU-editing enzyme APOBEC-3G (Homo sapiens, UniProt Q9HC16); format: functional;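 further: Dose-response counterscreen measuring inhibition of APOBEC3G DNA deaminase activity, run while confirming APOBEC3A inhibitors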
# Chain of DNA dC->dU-editing enzyme APOBEC-3G (Q9HC16 whole entry): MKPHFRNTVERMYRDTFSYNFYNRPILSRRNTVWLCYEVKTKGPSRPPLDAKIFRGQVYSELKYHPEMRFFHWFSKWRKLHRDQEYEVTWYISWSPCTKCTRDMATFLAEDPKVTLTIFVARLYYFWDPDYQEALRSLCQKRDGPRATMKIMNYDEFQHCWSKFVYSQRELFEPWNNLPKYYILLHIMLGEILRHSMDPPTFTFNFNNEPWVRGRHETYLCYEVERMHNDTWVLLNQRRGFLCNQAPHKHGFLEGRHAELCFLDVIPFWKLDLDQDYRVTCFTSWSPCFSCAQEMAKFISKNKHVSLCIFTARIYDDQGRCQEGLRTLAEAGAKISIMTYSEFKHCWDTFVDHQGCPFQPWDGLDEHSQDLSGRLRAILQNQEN
# [13] = target: T3, Beta-adrenergic receptor kinase 1 (Homo sapiens, UniProt P25098); assay: blockers of aptamer binding to GRK2 – biochemical, flow cytometry beads, FAM-aptamer, powder set 1, dose response (AID 588720)
# T3 sequence (P25098 whole entry): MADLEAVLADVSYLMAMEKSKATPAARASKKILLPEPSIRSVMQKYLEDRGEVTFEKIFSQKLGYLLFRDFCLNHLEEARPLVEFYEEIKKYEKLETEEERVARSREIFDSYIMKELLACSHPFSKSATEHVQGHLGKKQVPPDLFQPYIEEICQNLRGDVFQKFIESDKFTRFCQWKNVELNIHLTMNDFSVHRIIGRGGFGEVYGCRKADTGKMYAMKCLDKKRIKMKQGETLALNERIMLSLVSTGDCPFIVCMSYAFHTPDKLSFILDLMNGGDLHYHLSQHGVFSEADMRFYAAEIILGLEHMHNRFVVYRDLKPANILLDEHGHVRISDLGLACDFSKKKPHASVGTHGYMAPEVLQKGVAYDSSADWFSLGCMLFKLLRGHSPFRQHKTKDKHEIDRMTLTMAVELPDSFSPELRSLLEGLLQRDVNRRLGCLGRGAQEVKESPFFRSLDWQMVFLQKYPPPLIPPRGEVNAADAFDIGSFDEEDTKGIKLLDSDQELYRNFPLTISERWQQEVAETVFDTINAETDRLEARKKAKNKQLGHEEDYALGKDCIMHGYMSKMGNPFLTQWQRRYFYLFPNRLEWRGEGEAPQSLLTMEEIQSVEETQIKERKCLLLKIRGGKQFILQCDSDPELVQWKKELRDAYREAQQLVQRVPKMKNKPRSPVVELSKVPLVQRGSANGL
# [14] = target: Estrogen receptor beta (Homo sapiens, UniProt Q92731);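 further: recombinant ER-beta bound to coactivator SRC1 peptide in presence of estradiol agonist; inhibitors block coactivator peptide binding and lower the FRET signal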
# Chain of Estrogen receptor beta (Q92731 whole entry): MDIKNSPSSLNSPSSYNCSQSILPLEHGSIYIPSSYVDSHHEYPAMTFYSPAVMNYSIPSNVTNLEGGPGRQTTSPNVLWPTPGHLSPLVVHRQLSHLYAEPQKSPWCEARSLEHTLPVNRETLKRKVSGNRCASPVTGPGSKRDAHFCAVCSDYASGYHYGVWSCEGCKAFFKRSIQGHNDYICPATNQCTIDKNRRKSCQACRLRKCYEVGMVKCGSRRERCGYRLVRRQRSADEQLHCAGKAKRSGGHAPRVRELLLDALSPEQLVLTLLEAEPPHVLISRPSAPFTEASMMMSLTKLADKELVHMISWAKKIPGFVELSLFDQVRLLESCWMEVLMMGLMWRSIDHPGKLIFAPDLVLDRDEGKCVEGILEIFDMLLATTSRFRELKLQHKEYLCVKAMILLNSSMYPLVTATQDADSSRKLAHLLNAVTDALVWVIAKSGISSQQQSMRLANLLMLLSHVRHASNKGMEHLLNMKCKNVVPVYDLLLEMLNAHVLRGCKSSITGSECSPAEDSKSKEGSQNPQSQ
# [15] = target: T3, Beta-adrenergic receptor kinase 1; assay: aptamer displacement from bead-bound GRK2 – biochemical, cherry pick 1, bead flow cytometry, dose response (AID 504500)
# [16] = target: DNA dC->dU-editing enzyme APOBEC-3A (Homo sapiens, UniProt P31941); assay: Dose Response confirmation of small molecule APOBEC3A DNA Deaminase Inhibitors via a fluorescence-based single-stranded DNA deaminase assay. [Related pubchem assays (depositor defined):AID493011, AID493024]; format: functional
# Chain of DNA dC->dU-editing enzyme APOBEC-3A (P31941 whole entry): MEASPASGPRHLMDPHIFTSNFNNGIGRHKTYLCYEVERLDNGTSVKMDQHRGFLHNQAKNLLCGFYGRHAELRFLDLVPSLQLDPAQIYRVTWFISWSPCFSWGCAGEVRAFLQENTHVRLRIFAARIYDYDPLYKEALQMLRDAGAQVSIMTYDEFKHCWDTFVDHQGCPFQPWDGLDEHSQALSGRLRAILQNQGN
# [17] = tested on: HEK293; assay: SAR Analysis of small molecule inhibitors of T-cell specific antigen receptor-induced NF-kB activation in a HEK-293T cell line using a luminescence assay - Set 2. [Related pubchem assays (depositor defined):AID435003, AID435012, AID489026]; format: functional, cell-based; details: Homo sapiens
# [18] = tested on: Jurkat; assay: SAR Analysis of small molecule inhibitors of T-cell specific antigen receptor-induced NF-kB activation in a Jurkat cell line using a luminescence assay - Set 2. [Related pubchem assays (depositor defined):AID435003, AID435012, AID465]; format: functional, cell-based; details: Homo sapiens
# [19] = tested on: HEK293; assay: HEK293T cell viability loss, resazurin readout – resazurin fluorescence, cytotoxicity control for NF-kB activator project, SAR follow-up (AID 493251); format: functional, cell-based; details: Homo sapiens
# [20] = target: Hexokinase-1 (Homo sapiens, UniProt P19367); assay: SAR analysis of small molecule inhibitors of hexokinase domain containing I (HKDC1) in the hexokinase 1 selectivity assay. [Related pubchem assays (depositor defined):AID493160, AID493190]; format: functional
# Chain of Hexokinase-1 (P19367 whole entry, the tested form may be a part): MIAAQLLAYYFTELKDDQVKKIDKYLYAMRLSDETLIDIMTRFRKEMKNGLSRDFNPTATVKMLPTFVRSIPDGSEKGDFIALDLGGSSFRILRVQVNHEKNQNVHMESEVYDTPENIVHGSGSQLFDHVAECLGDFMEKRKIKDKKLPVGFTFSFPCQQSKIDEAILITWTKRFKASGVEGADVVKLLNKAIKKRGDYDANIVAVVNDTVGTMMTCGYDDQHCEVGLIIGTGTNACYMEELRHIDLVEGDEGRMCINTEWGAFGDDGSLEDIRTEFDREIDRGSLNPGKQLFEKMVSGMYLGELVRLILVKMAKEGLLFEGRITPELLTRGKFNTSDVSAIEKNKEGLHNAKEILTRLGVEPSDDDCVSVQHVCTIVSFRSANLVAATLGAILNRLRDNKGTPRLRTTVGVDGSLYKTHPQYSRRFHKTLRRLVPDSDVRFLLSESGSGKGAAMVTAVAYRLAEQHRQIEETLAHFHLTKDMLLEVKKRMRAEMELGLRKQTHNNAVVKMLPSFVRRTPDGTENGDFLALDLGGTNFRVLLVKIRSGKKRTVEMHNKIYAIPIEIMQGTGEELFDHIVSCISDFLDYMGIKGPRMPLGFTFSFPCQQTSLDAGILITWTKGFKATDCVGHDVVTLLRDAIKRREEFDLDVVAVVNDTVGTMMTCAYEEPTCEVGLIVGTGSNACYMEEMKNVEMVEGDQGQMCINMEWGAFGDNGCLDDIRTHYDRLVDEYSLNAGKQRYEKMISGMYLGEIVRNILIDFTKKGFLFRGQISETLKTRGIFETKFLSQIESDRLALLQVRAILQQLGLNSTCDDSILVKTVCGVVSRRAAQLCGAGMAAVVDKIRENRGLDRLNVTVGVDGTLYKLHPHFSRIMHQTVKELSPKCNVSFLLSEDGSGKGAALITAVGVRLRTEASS
# [21] = target: T4, Hexokinase HKDC1 (Homo sapiens, UniProt Q2TB90); assay: SAR analysis of small molecule inhibitors of hexokinase domain containing I (HKDC1). [Related pubchem assays (depositor defined):AID493160, AID493190]; format: functional
# T4 sequence (Q2TB90 whole entry): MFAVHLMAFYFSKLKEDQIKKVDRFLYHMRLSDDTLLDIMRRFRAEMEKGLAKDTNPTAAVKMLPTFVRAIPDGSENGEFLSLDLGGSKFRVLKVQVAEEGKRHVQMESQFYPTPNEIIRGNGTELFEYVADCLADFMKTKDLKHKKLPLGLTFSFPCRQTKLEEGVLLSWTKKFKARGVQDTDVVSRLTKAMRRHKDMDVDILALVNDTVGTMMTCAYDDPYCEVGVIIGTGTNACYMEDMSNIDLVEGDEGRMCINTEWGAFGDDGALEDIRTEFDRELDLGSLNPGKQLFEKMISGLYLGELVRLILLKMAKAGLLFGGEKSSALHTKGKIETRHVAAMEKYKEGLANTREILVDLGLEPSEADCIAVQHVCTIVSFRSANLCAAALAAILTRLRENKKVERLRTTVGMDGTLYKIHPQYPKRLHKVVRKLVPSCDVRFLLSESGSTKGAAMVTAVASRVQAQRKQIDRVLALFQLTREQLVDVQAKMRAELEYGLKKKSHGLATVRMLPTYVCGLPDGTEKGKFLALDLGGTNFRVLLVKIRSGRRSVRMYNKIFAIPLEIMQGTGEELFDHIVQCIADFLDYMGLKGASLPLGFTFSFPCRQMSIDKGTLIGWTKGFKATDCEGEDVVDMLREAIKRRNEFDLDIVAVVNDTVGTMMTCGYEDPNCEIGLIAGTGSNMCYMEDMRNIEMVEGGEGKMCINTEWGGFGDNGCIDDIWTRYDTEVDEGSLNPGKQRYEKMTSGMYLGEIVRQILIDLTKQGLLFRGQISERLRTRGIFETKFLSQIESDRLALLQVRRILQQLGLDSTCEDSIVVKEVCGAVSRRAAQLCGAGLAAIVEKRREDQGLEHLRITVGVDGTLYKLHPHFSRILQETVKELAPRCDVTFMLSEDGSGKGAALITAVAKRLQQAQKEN
# [22] = target: T5, Short transient receptor potential channel 4 (Mus musculus, UniProt Q9QUQ5); assay: SAR Analysis for the identification of selective inhibits of the transient receptor potential cation channel C4 (TRPC4): Automated Electrophysiology_2. [Related pubchem assays (depositor defined):AID2256]; format: functional
# T5 sequence (Q9QUQ5 whole entry): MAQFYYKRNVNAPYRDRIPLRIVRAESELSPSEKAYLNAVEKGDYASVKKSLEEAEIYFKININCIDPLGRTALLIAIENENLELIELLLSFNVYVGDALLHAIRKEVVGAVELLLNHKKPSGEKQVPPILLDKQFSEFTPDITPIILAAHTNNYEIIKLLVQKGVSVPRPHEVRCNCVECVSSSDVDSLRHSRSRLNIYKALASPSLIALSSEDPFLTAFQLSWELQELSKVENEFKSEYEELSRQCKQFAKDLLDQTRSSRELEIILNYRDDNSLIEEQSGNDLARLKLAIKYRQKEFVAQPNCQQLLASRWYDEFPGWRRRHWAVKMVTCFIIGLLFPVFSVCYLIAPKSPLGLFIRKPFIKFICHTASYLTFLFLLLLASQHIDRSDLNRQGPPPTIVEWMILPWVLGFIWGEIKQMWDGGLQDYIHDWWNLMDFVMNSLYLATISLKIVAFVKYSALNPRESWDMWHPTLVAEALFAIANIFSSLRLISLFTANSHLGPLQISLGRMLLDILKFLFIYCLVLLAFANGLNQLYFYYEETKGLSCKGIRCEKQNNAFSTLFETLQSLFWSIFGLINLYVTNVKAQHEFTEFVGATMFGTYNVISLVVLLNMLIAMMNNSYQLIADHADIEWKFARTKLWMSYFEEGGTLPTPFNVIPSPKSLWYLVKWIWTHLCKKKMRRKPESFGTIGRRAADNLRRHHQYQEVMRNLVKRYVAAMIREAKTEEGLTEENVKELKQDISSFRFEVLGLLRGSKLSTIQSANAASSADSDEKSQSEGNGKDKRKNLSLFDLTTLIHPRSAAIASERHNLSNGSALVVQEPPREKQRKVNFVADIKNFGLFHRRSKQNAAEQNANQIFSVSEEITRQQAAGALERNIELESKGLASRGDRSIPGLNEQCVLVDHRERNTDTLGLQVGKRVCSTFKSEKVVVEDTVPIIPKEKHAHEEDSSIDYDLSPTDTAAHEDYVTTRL
# [23] = target: T5, Short transient receptor potential channel 4; assay: potency of mouse TRPC4 calcium flux blockers – cell-based, HEK293 TRPC4/mu-opioid, DAMGO stimulus, Fluo-4, dose response (AID 492994); format: functional
# [24] = target: Short transient receptor potential channel 6 (Mus musculus, UniProt Q61143); assay: mouse TRPC6 channel blockers, concentration series – HEK293 cells, membrane potential dye, IC50, selectivity assay for selective TRPC4 inhibitor project, dose response (AID 492987); format: functional, cell-based
# Chain of Short transient receptor potential channel 6 (Q61143 whole entry): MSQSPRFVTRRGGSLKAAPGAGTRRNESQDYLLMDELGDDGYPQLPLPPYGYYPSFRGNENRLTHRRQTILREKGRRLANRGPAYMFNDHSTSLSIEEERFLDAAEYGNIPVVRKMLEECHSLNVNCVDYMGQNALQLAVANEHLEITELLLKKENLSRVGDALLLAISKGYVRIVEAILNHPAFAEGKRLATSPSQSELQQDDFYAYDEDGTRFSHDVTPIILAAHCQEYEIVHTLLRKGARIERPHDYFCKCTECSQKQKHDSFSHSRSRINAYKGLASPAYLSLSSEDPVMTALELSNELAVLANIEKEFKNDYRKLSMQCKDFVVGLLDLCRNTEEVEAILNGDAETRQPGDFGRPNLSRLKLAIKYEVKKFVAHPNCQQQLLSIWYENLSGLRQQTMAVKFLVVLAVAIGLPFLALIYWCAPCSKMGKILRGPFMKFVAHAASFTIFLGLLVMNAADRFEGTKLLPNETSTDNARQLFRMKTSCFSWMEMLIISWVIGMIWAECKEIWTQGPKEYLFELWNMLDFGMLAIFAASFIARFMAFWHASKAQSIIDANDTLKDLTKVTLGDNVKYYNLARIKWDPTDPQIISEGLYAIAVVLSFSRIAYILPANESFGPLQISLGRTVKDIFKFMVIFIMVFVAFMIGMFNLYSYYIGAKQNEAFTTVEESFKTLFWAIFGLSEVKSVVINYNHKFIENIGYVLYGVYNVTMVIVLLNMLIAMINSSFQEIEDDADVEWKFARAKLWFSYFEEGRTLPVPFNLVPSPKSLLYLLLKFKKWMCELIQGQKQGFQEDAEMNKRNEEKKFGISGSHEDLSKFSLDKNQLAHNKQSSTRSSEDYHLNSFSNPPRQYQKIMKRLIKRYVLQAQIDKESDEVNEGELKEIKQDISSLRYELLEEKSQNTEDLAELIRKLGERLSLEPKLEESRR
# [25] = target: Voltage-gated inwardly rectifying potassium channel KCNH2 (Homo sapiens, UniProt Q12809); details: Potency;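 further: confirmatory quantitative high-throughput screen measuring inhibition of hERG channel activity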
# Chain of Voltage-gated inwardly rectifying potassium channel KCNH2 (Q12809 whole entry): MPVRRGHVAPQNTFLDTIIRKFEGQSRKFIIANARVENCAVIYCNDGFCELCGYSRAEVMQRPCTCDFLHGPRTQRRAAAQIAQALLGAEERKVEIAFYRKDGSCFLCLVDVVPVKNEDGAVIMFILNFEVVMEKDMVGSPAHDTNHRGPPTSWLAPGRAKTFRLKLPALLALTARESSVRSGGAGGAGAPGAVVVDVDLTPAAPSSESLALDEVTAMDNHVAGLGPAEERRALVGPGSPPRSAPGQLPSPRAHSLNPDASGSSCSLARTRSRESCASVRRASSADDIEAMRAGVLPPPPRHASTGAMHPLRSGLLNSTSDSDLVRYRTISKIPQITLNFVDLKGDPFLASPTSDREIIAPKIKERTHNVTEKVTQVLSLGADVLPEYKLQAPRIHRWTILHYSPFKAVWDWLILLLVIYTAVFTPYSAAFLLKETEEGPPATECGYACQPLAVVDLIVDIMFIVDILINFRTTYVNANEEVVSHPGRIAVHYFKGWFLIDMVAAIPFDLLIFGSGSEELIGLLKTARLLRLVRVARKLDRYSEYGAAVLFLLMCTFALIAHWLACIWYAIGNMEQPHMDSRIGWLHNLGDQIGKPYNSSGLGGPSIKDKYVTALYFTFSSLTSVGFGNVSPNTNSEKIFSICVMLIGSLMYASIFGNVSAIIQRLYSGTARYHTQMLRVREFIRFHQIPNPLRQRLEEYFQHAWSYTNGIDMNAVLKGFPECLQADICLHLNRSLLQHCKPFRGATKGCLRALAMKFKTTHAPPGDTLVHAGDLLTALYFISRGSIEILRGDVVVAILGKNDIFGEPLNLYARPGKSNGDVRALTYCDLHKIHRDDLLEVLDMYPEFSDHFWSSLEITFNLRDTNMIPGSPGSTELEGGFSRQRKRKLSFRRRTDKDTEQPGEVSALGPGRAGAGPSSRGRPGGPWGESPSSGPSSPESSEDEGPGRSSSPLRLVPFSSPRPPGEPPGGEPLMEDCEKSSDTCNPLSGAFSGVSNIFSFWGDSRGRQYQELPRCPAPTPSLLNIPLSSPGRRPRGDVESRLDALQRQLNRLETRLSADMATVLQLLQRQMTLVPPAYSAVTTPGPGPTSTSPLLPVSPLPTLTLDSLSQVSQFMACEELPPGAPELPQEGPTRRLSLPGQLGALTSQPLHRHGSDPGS
# T1 sequence (P07550 whole entry): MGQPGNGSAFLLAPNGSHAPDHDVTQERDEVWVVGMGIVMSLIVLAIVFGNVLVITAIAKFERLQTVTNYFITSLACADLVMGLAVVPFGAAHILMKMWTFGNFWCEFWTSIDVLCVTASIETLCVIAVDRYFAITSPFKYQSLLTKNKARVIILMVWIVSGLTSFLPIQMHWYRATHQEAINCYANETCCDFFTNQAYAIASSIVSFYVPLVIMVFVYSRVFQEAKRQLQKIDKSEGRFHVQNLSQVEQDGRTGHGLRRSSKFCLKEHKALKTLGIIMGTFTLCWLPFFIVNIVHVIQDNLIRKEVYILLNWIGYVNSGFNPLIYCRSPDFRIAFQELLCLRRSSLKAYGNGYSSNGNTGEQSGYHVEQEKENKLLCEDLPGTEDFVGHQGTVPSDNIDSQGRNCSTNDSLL
structure (smiles),measurement,setting,value
C=CCn1c(CCNC(=O)c2cccs2)nnc1SCC(=O)c1ccc(Br)cc1,EC50,[1],0.00548 µM (active)
same,EC50,[2],0.214 µM (active)
O=C1/C(=C/c2ccccc2)C[C@@]2(O)[C@H]3Cc4ccc(O)c5c4[C@@]2(CCN3CC2CC2)C1O5 (stereo not given in full),IC50,[3],14 µM (active)
same,AC50,[4],8.88 µM (active)
same,AC50,[5],4.64 µM (active)
same,IC50,[6],4.22 µM (active)
same,EC50,[7],> 40 µM (inactive)
same,AC50,[8],7.78 µM (active)
same,IC50,[9],> 80 µM (inactive)
Cc1ccc(Nc2nc(N)nc(CSC(=S)N3CCN(c4ccccc4)CC3)n2)cc1,AC50,[10],31.4 µM (active)
same,AC50,[11],13.4 µM (active)
Cc1cc(=O)[nH]c(SCC(=O)NCc2ccco2)n1,IC50,[12],43.4 µM (active)
same,EC50,[13],44.9 µM (active)
same,IC50,[14],6.27 µM (active)
same,EC50,[15],22.1 µM (inactive)
same,IC50,[16],17.4 µM (active)
COc1ccc(C(=O)Nc2ccc(NC(=O)c3cc4ccccc4o3)cc2)cc1Br,IC50,[17],> 80 µM (inactive)
same,IC50,[18],> 79 µM (inactive)
same,IC50,[19],> 80 µM (inactive)
O=c1c2ccccc2nc(/C=C/c2ccccc2Cl)n1Cc1ccccc1,IC50,[20],> 80 µM (inactive)
same,IC50,[21],> 80 µM (inactive)
Cc1cc(N2CCCC2)nc2c(C)cccc12,IC50,[22],9.96 µM (active)
same,IC50,[23],10.7 µM (active)
same,IC50,[24],9.8 µM (active)
COc1cc([C@@H]2c3cc4c(cc3[C@H](O)C3COC(=O)[C@@H]32)OCO4)cc(OC)c1OC (stereo not given in full),AC50,[25],0.501 µM (inconclusive)
